Experimental findings from paper PMC5803267, “A small molecule inhibitor of Rheb selectively targets mTORC1 signaling” (Nature Communications, 2018) are described below.

Structures are written as SMILES. Entries after “also recorded” stand apart in the source; their conditions may differ.

Assay [1] concerns T202/Y204pERK1/2 (Ras/ERK pathway) in MCF-7 cells. The assay is described as follows: EGF-induced T202/Y204pERK1/2 Western blot in MCF-7 cells. Type of assay: cell-based, human. Conditions: MCF-7 serum-starved 16 h, compound 90 min, 100 ng mL^−1 EGF. The method, then: (§1) MCF-7 cells were serum-starved for 16 h and treated with compound for 90 min before cell lysis and Western blot analysis. For insulin-stimulated cells, 100 nM insulin was added 30 min before cell lysis. For EGF-stimulated cells, 100 ng mL^−1 EGF was added 10 min before cell lysis. c Rap1 activity was detected in lysates loaded in vitro with either GDP or GTPγS and treated with NR1 at the indicated concentrations. This was followed by a subsequent pulldown of GST-RalGDS-RBD. Bound Rap1 was detected by Western blot. d Evaluation of NR1 in a LAM patient-derived cell line (TRI102) under replete and serum-starved conditions. For replete conditions, TRI102 cells were treated for 90 min with compound in DMEM + 10% FBS. For serum-starved conditions, TRI102 cells were serum-starved 16 h and then treated for 90 min with compound prior to cell lysis and Western blot analysis. e HEK293 cells co-transfected with the indicated mTOR constructs and HA-GST-S6K1 were starved of amino acids or treated with NR1. To assess mTORC1 activity, an HA IP was performed and Western blots probed for ^T389pS6K1. f Chronic treatment of PC3 cells with NR1 to evaluate the inhibition of mTORC1 (using ^T389pS6K1) versus mTORC2 (using ^S473pAKT). PC3 cells were treated with compound under replete conditions for 24 h prior to cell lysis and Western blot analysis. […]
For orientation: A western blot detects proteins with antibodies after separation by electrophoresis.

The subject of assay [2] is Rap1. The assay is described as follows: Rap1 in vitro activity assay (GST-RalGDS-RBD pulldown from lysates). Type of assay: biochemical, human. The settings on record: lysates loaded with GDP or GTPγS, compound 30 min. On the procedure:
as §1

The target of assay [3] is Rheb (Homo sapiens, UniProt Q15382). The assay is described as follows: Affinity selection mass spectrometry (ASMS) Rheb binding. Conditions: result in words. From the text:
We used both Rheb binding and functional activity to guide the SAR optimization. Due to its high sensitivity and ability to detect weak binding ligands, STD NMR was initially used to measure Rheb binding. In addition to the benzimidazole of 1, we also explored the related indole scaffold, which allowed a wider range of functionalization. […] Therefore, we also used affinity selection mass spectrometry (ASMS) as a semi-quantitative measure of Rheb binding.

Assay [4] relates to S473pAKT (mTORC2) in PC3 cells. Put plainly: Chronic treatment of PC3 cells, S473pAKT Western blot. Type of assay: cell-based, human. On the procedure: MCF-7 cells were serum-starved for 16 h and treated with compound for 90 min before cell lysis and Western blot analysis. For insulin-stimulated cells, 100 nM insulin was added 30 min before cell lysis. For EGF-stimulated cells, 100 ng mL^−1 EGF was added 10 min before cell lysis. c Rap1 activity was detected in lysates loaded in vitro with either GDP or GTPγS and treated with NR1 at the indicated concentrations. This was followed by a subsequent pulldown of GST-RalGDS-RBD. Bound Rap1 was detected by Western blot. d Evaluation of NR1 in a LAM patient-derived cell line (TRI102) under replete and serum-starved conditions. For replete conditions, TRI102 cells were treated for 90 min with compound in DMEM + 10% FBS. For serum-starved conditions, TRI102 cells were serum-starved 16 h and then treated for 90 min with compound prior to cell lysis and Western blot analysis. e HEK293 cells co-transfected with the indicated mTOR constructs and HA-GST-S6K1 were starved of amino acids or treated with NR1. To assess mTORC1 activity, an HA IP was performed and Western blots probed for ^T389pS6K1. f Chronic treatment of PC3 cells with NR1 to evaluate the inhibition of mTORC1 (using ^T389pS6K1) versus mTORC2 (using ^S473pAKT). PC3 cells were treated with compound under replete conditions for 24 h prior to cell lysis and Western blot analysis.
Accordingly, a hallmark of a selective mTORC1 inhibitor such as NR1 would be the lack of mTORC2 inhibition irrespective of the duration of treatment. PC3 cells are sensitive to mTORC2 inhibition with long-term rapamycin treatment. Indeed, upon treatment with rapamycin for 24 h, both ^T389pS6K1 and ^S473pAKT were lowered, indicating inhibitory effects on both mTORC1 and mTORC2, respectively.
For Western-based signaling assays, cells were treated for either 90 min or 2–24 h as indicated before lysis, normalization, and Western analysis. Cells were lysed in Triton lysis buffer: 1% Triton X-100, 50 mM HEPES pH 7.4, 100 mM NaCl, 2 mM EDTA, 10 mM β-glycerophosphate, 10 mM Na-pyrophosphate, protease inhibitor.

Sequence of Rheb (Q15382 whole entry): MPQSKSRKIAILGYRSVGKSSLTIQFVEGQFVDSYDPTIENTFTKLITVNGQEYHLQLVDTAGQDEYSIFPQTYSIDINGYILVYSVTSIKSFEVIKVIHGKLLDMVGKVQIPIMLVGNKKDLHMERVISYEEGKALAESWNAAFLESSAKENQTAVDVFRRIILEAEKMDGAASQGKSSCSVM

For the molecule `CN(C)C(=O)c1ccc(Cn2c(C(=O)O)cc3c(Br)cc(Sc4ccc(Cl)c(Cl)c4)cc32)cc1` [NR1, 4-bromo-6-(3,4-dichlorophenylthio)-1-(4-(dimethylcarbamoyl)benzyl)-1H-indole-2-carboxylic acid], the “EGF-induced phosphorylation of T202/Y204pERK1/2” value in assay [1] is on record as “did not inhibit”. For the same molecule, the “effect on activity of Rap1 in vitro” value in assay [2] is “no impact on the activity of Rap1; also recorded: did not affect the activity of Rap1”. For the same molecule, the “Rheb binding by ASMS” value in assay [3] was “significant affinity”. Further, the “S473pAKT after 24 h treatment” value in assay [4] (PC3, replete, 24 h, NR1 30 µM, rapamycin 100 nM) is listed as “no inhibition”. For the same molecule, in assay [4] (PC3, time points 2 h through 24 h), the “pAkt over time course” value is “activates pAkt”.
